# Where a SMILES comes first, the peptide text is derived from it. [ ]: non-standard residue; d: D form. The star is where a group is joined. Heptanoyl = CCCCCCC(=O)*; Dap = NC[C@H](N)C(=O)O; X1 = O=C(CCCCCF)*
# Assays:
# [1] = target: T1, Growth hormone secretagogue receptor type 1 (Homo sapiens, UniProt Q92847); assay: Displacement of [35S]MK-0677 from human growth hormone secretagogue receptor
# [2] = target: T1, Growth hormone secretagogue receptor type 1; assay: Displacement of [125I]ghrelin from human growth hormone secretagogue receptor expressed in CHO-K1 cells; format: cell-based
# [3] = target: T1, Growth hormone secretagogue receptor type 1; assay: Displacement of [125I]ghrelin from human growth hormone secretagogue receptor expressed in CHO-K1 cells at >2 uM; format: cell-based
# T1 sequence (Q92847 whole entry): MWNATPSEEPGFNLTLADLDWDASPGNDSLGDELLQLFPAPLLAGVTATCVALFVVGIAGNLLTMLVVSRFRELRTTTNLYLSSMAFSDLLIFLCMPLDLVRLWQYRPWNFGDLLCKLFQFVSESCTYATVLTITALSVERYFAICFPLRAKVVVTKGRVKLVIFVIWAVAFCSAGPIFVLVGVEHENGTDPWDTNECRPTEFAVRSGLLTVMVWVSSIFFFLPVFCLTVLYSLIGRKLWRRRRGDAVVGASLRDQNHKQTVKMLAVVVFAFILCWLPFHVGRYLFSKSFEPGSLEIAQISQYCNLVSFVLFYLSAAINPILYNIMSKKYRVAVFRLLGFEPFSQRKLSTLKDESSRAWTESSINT
IC50 [1] [µM],IC50 [2] [µM],Activity [3] [%],Compound
889,–,–,CCCCCCC(=O)OC[C@H](NC(=O)[C@H](CO)NC(=O)CN)C(=O)N[C@@H](Cc1ccccc1)C(N)=O (H-GSS(Heptanoyl)F-NH2)
–,> 2,20,CC(C)C[C@H](NC(=O)[C@H](Cc1ccccc1)NC(=O)[C@H](CNC(=O)CCCCCF)NC(=O)[C@H](CO)NC(=O)CN)C(N)=O (H-GS[Dap](X1)FL-NH2)
55,–,–,CCCCCCC(=O)OC[C@H](NC(=O)[C@H](CO)NC(=O)CN)C(=O)N[C@@H](Cc1ccccc1)C(=O)N[C@@H](CC(C)C)C(N)=O (H-GSS(Heptanoyl)FL-NH2)
9.6,–,–,CCCCCCC(=O)OC[C@H](NC(=O)[C@H](CO)NC(=O)CN)C(=O)N[C@@H](Cc1ccccc1)C(=O)N[C@@H](CC(C)C)C(=O)N[C@@H](CO)C(=O)N1CCC[C@H]1C(=O)N[C@@H](CCC(=O)O)C(=O)N[C@@H](Cc1cnc[nH]1)C(=O)N[C@@H](CCC(N)=O)C(=O)N[C@@H](CCCN=C(N)N)C(=O)N[C@H](C(=O)N[C@@H](CCC(N)=O)C(=O)N[C@@H](CCC(N)=O)C(=O)O)C(C)C
